According to PubChem BioAssay AID179 (DTP/NCI, 2004):
Where a name gives a salt, the structure may show the parent alone. The source made the active and inactive calls.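 The calls were made as follows: active = compounds giving half or more protection of infected cells from virus-caused growth loss, again on retest; inactive = the rest.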 Where a SMILES comes first, the peptide text is derived from it. The star is where a group is joined. Tfa = O=C(C(F)(F)F)*

System: CEM cells HIV-1 protection, formazan growth assay
Experiment: NCI AIDS Antiviral Assay
Settings: for IC50: measured here: growth of uninfected CEM cells
Outline: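 Protection of CEM cells against HIV-1 measured as cell growth via soluble formazan read-out, with five concentrations tested on both infected and uninfected cells; failure to protect may reflect toxicity.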

Compound | EC50 | IC50 | outcome
O=C(O)C1CSC2c3ccccc3C(=O)N12 (configuration not stated) | > 200 µM | > 200 µM | 
COc1ccccc1NC(=O)C(/C=N/C(=S)NNC(C)=O)=C(/C)O | > 200 µM | > 200 µM | 
CCOC(=O)CCCc1cc(=O)c2c(C)c3[nH]c4ccc(Cl)cc4c3c(C)c2[nH]1 | > 200 µM | 34.7 µM | 
COc1cccc(/C=N/[N-]C(=O)c2ccncc2)c1[O-].COc1cccc(/C=N/[N-]C(=O)c2ccncc2)c1[O-].[O]=[U](=[O])([OH2+])[OH2+] | > 214 µM | 4.9 µM | 
COc1ccc(C2=NNC(=O)CC2)cc1OC | > 1070 µM | 550 µM | 
BrCc1cccc(C[P+](c2ccccc2)(c2ccccc2)c2ccccc2)c1 | > 200 µM | 1.17 µM | 
CCOc1ccccc1NC(=O)C1=C(C)NC(C)=C(C(=O)Nc2ccccc2OCC)C1c1ccc([N+](=O)[O-])cc1 | > 9.33 µM | > 9.33 µM | 
CCC(=O)[CH-]C(=O)CC.CCC(=O)[CH-]C(=O)CC.[Cu+2] | > 200 µM | 24.5 µM | 
COc1cc(/C=C2\N=C(c3ccccc3)OC2=O)cc(OC)c1OC | > 21.4 µM | > 21.4 µM | 
Cc1cccc(NC(=S)NC(=O)c2ccccc2)n1 | > 200 µM | > 200 µM | 
CC(=O)NC(CC(C)C(C)=O)C(=O)O (configuration not stated) | > 200 µM | > 200 µM | 
Cc1nc(-n2nc(-c3ccccc3)cc2-c2ccccc2)sc1C(=O)/C=C/c1ccc([N+](=O)[O-])cc1 | > 38 µM | 30.9 µM | 
CC[n+]1[b-](C(C)(C)C)n(/N=C/C(C)(C)C)[b-](C(C)(C)C)[n+]1CC | > 200 µM | > 200 µM | 
Cc1cc(S(=O)(=O)Nc2nc(N)n(-c3ccccc3)n2)c(S)cc1Cl | 129 µM | 468 µM | 
OCC1c2ccccc2-n2nc(-c3ccccc3)c(O)c21 (configuration not stated) | > 200 µM | 3.31 µM | 
CC(=O)O[C@@H]1C(O)C=C2c3cc4c(c(O)c3C(=O)NC2[C@@H]1OC(C)=O)OCO4 (some centres not stated) |  |  | inactive
COc1ccc(-n2cccc2)cc1 | > 200 µM | > 200 µM | 
O=C(O)CC(NC(=O)C(F)(F)F)C(=O)NC(Cc1ccc(O)cc1)C(=O)O (stereo not drawn) (Tfa-Asp-Tyr-OH; configuration not given here) | > 200 µM | > 200 µM | 

Compound | EC50 | IC50 | outcome
CCc1c(-c2ccccc2)[nH]c(=S)c(C#N)c1C | > 200 µM | > 200 µM | 
CC(=O)C(=Cc1cccc(C#N)c1)C(C)=O | > 63.1 µM | 34.7 µM | 
O=C(Nc1cccc(C2=NCCN2)c1)Nc1cccc(C2=NCCN2)c1 | > 200 µM | 32.4 µM | 
COC(=O)C1(F)C(=O)NC(=O)NC1O (configuration not stated) | > 200 µM | 91.2 µM | 
O=S(=O)(O)SCCCNCCCNCCCSS(=O)(=O)O | > 200 µM | 13.8 µM | 
C[n+]1c2ccccc2c(/C=N\NS(=O)(=O)c2ccc(Cl)cc2)c2ccccc21 |  |  | inactive
CCCCCCC(O)C/C=C/CCCCCC/C(C(=O)OC)=C(/O)C(=O)OCC (configuration not stated) | > 83.2 µM | > 83.2 µM | 
CC(C)(C)C1CCC2c3c([nH]c4ccccc34)C3C(=O)N(c4ccc(Cl)cc4)C(=O)C3C2C1 (configuration not stated) | > 200 µM | > 100 µM | 
CCC(C)C1NC(=O)C(N(C)C)Cc2cc(ccc2OC)/C=C/NC(=O)C(Cc2ccccc2)NC1=O (configuration not stated) | > 35.5 µM | > 35.5 µM | 
Clc1nc2cc3c(cc2n2cccc12)oc1ccccc13 | > 200 µM | > 200 µM | 
CO[C@H]1Nc2c(ccc(C)c2O)C(=O)N2C=C(/C=C/C(N)=O)C[C@@H]12 | > 759 µM | 0.427 µM | 
CCCC(C(=O)OCCN1CCCC12CCCCC2)C1CCCC1 (configuration not stated) | > 200 µM | 11 µM | 
CC(=O)OC1C=C(C=O)C(O)(C=O)C2(C)CCCC(C)(C)C12 (configuration not stated) | > 200 µM | 8.13 µM | 
CCSC(CCC(NC(C)=O)C(=O)O)SCC (configuration not stated) | > 200 µM | > 200 µM | 
O=C(OCC1CO1)c1cccs1 (configuration not stated) |  |  | inactive
CC(=O)/C(=C/N1C(=O)CC(=O)NC1=S)C(=O)Nc1ccccc1 | > 200 µM | > 200 µM | 
COC(=O)C(NC(=O)CSc1nnc(COc2ccc(Cl)cc2)n1-c1ccccc1)C(C)C (configuration not stated) | > 200 µM | 12 µM | 
